Assay results taken from PubChem BioAssay (NCI).
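Five concentrations, 48 hours, 96-well plates. TGI denotes the concentration required for complete inhibition of growth.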 Active and inactive are the calls of the source. Cut-off read from the data, not from the text of the source: active = GI50 below about 0.43 µM; inactive = the rest. Where a SMILES comes first, the peptide text is derived from it. The star is where a group is joined. Boc = CC(C)(C)OC(=O)*

What was measured:
Experiment in all cases: inhibition of tumour cell growth, NCI panel, 48 h
786-0 renal = tested on: 786-0 renal
A498 renal = tested on: A498 renal
A549 NSCLC = tested on: A549 NSCLC
ACHN renal = tested on: ACHN renal
BT-549 breast = tested on: BT-549 breast
CAKI-1 renal = tested on: CAKI-1 renal
CCRF-CEM leukemia = tested on: CCRF-CEM leukemia
COLO 205 colon = tested on: COLO 205 colon
DU-145 prostate = tested on: DU-145 prostate
EKVX NSCLC = tested on: EKVX NSCLC
HCC-2998 colon = tested on: HCC-2998 colon
HCT-116 colon = tested on: HCT-116 colon
HCT-15 colon = tested on: HCT-15 colon
HL-60(TB) leukemia = tested on: HL-60(TB) leukemia
HOP-62 NSCLC = tested on: HOP-62 NSCLC
HOP-92 NSCLC = tested on: HOP-92 NSCLC
HS 578T breast = tested on: HS 578T breast
HT29 colon = tested on: HT29 colon
IGROV1 ovarian = tested on: IGROV1 ovarian
K-562 leukemia = tested on: K-562 leukemia
KM12 colon = tested on: KM12 colon
LOX IMVI melanoma = tested on: LOX IMVI melanoma
M14 melanoma = tested on: M14 melanoma
MALME-3M melanoma = tested on: MALME-3M melanoma
MCF7 breast = tested on: MCF7 breast
MDA-MB-231 breast = tested on: MDA-MB-231 breast
MDA-MB-435 = tested on: MDA-MB-435
MDA-N = tested on: MDA-N
NCI-H226 lung = tested on: NCI-H226 lung
NCI-H23 lung = tested on: NCI-H23 lung
NCI-H522 lung = tested on: NCI-H522 lung
NCI/ADR-RES ovarian = tested on: NCI/ADR-RES ovarian
OVCAR-3 ovarian = tested on: OVCAR-3 ovarian
OVCAR-4 ovarian = tested on: OVCAR-4 ovarian
OVCAR-5 ovarian = tested on: OVCAR-5 ovarian
OVCAR-8 ovarian = tested on: OVCAR-8 ovarian
PC-3 prostate = tested on: PC-3 prostate
RPMI-8226 leukemia = tested on: RPMI-8226 leukemia
RXF 393 renal = tested on: RXF 393 renal
SF-268 CNS = tested on: SF-268 CNS
SF-295 CNS = tested on: SF-295 CNS
SF-539 CNS = tested on: SF-539 CNS
SK-MEL-2 melanoma = tested on: SK-MEL-2 melanoma
SK-MEL-28 melanoma = tested on: SK-MEL-28 melanoma
SK-MEL-5 melanoma = tested on: SK-MEL-5 melanoma
SK-OV-3 ovarian = tested on: SK-OV-3 ovarian
SN12C renal = tested on: SN12C renal
SNB-19 CNS = tested on: SNB-19 CNS
SNB-75 CNS = tested on: SNB-75 CNS
SR leukemia = tested on: SR leukemia
SW-620 colon = tested on: SW-620 colon
T-47D breast = tested on: T-47D breast
TK-10 renal = tested on: TK-10 renal
U251 CNS = tested on: U251 CNS
UACC-257 melanoma = tested on: UACC-257 melanoma
UACC-62 melanoma = tested on: UACC-62 melanoma
UO-31 renal = tested on: UO-31 renal
MOLT-4 leukemia = tested on: MOLT-4 leukemia
NCI-H460 lung = tested on: NCI-H460 lung

Measured: TGI

O=c1cc(-c2ccc(O)c(O)c2-c2c(O)cc3oc(-c4ccc(O)c(O)c4)cc(=O)c3c2O)oc2cc(O)cc(O)c12
not listed: MOLT-4 leukemia | NCI-H460 lung
inactive: all other assays above

CC(NC(=O)OC(C)(C)C)C(=O)NC(Cc1ccccc1)C(=O)NCC(=O)O (stereo not drawn) (Boc-Ala-Phe-Gly-OH; configuration not given here)
not listed: OVCAR-4 ovarian
> 100 µM: all other assays above
